Assay results published in ChEMBL document CHEMBL4219040, “Modulation of Glycine-Mediated Spinal Neurotransmission for the Treatment of Chronic Pain” (J Med Chem, 2018).

Key:
[1] = target: T1, Glycine receptor alpha-3/beta (Homo sapiens, UniProt O75311+P48167); assay: Positive allosteric modulation of human GlyRalpha3beta expressed in CHO cells assessed as potentiation of EC20 glycine-induced response at 5.9 uM by fluorescence based HTS assay; format: cell-based
[2] = target: T1, Glycine receptor alpha-3/beta; assay: Positive allosteric modulation of human GlyRalpha3beta expressed in CHO cells assessed as potentiation of EC20 glycine-induced ion flux at 10 uM by HT assay; format: cell-based
[3] = target: T1, Glycine receptor alpha-3/beta; assay: Positive allosteric modulation of human GlyRalpha3beta expressed in CHO cells assessed as potentiation of EC20 glycine-induced ion flux by HT assay; format: cell-based
[4] = target: T1, Glycine receptor alpha-3/beta; assay: Positive allosteric modulation of human GlyRalpha3beta expressed in CHO cells assessed as potentiation of EC5 to EC10 glycine-induced response at 10 uM by manual patch clamp assay; format: cell-based
[5] = target: T2, Sodium- and chloride-dependent glycine transporter 1 (Homo sapiens, UniProt P48067); assay: Inhibition of human GlyT-1
T2 sequence (P48067 whole entry): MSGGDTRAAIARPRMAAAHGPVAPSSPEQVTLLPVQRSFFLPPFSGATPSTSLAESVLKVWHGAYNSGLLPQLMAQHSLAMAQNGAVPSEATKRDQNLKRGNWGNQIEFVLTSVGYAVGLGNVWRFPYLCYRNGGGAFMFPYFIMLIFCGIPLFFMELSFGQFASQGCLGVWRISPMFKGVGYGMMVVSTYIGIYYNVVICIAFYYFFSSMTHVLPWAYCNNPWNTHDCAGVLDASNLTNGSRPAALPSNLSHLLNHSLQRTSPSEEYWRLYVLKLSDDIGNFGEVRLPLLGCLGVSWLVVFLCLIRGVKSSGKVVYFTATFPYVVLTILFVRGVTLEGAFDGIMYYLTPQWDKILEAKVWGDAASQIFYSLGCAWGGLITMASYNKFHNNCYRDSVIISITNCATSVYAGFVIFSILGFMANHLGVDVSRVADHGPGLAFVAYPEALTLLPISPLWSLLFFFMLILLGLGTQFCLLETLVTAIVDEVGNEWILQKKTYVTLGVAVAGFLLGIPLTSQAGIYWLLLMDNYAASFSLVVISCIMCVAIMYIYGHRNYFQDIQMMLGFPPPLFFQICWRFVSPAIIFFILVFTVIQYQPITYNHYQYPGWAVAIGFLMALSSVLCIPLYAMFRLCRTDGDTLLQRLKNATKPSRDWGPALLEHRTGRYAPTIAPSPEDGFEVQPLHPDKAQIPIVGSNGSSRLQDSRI

[6] = target: T3, Sodium- and chloride-dependent glycine transporter 2 (Homo sapiens, UniProt Q9Y345); assay: Inhibition of human GlyT-2 expressed in HEK293 cells assessed as reduction in [3H]-glycine uptake preincubated for 30 mins followed by 3H]-glycine addition measured after 30 mins by liquid scintillation counting method; format: cell-based
T3 sequence (Q9Y345 whole entry): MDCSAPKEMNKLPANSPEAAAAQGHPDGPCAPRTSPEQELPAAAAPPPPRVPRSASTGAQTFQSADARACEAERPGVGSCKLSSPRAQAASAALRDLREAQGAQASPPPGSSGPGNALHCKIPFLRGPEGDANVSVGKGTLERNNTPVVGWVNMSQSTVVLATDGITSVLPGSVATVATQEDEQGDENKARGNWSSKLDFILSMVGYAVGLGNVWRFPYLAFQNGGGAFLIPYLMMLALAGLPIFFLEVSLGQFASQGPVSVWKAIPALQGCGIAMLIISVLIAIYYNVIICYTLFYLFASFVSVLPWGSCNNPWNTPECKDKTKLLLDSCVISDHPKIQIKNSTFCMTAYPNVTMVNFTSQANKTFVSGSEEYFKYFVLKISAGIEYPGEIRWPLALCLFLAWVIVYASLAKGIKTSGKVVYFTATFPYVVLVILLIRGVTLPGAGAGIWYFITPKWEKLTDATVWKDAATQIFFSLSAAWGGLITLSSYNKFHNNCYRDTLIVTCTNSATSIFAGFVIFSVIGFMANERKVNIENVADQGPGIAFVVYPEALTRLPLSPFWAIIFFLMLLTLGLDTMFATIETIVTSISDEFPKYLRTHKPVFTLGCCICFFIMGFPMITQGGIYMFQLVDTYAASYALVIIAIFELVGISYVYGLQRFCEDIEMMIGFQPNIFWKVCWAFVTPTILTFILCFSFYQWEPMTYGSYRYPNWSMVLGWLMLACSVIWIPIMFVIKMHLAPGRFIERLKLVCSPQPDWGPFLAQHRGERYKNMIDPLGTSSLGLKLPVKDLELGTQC

[7] = target: T2, Sodium- and chloride-dependent glycine transporter 1; assay: Inhibition of human GlyT-1 expressed in HEK293 cells assessed as reduction in [3H]-glycine uptake preincubated for 30 mins followed by 3H]-glycine addition measured after 30 mins by liquid scintillation counting method; format: cell-based
Homo sapiens = organism: Homo sapiens; assay: Selectivity ratio of IC50 for human GlyT-1 expressed in HEK293 cells to IC50 for human GlyT-2 expressed in HEK293 cells; format: cell-based
[8] = Unbound brain to plasma concentration ratio in mouse; format: ADME, cell-free; details: read-out: K(p,uu,brain)
Rattus norvegicus [9] = organism: Rattus norvegicus; assay: Antiallodynic activity in spinal cord injury Sprague-Dawley rat model assessed as inhibition of non-voiding contraction amplitude at 10 ug, it relative to control; format: functional
Rattus norvegicus [10] = organism: Rattus norvegicus; assay: Antiallodynic activity in spinal cord injury Sprague-Dawley rat model assessed as inhibition of non-voiding contraction frequency at 10 ug, it relative to control; format: functional
Rattus norvegicus [11] = organism: Rattus norvegicus; assay: Antiallodynic activity in spinal cord injury Sprague-Dawley rat model assessed as inhibition of non-voiding contraction amplitude at 30 ug, it relative to control; format: functional
Rattus norvegicus [12] = organism: Rattus norvegicus; assay: Antiallodynic activity in spinal cord injury Sprague-Dawley rat model assessed as inhibition of non-voiding contraction frequency at 30 ug, it relative to control; format: functional
Mus musculus [13] = assay: Antiallodynic activity in ddY mouse partial sciatic nerve ligation-injury model assessed as inhibition of mechanical allodynia by measuring paw withdrawal threshold in response to probing with von Frey hairs administered via iv route; format: functional
[14] = target: T3, Sodium- and chloride-dependent glycine transporter 2; assay: Inhibition of GlyT-2 (unknown origin)
Mus musculus [15] = assay: Analgesic activity in CFA-induced mechanical hyperalgesia C57BL/6J mouse model assessed as reduction in mechanical paw withdrawal threshold administered sc measured after 2 hrs; format: functional, organism-based
Mus musculus [16] = assay: In vivo inhibition of GlyT in CFA-induced mechanical hyperalgesia C57BL/6J mouse model assessed as increase in extracellular glycine level in CSF at 200 mg/kg, sc relative to basal level; format: functional
[17] = target: T4, P2X purinoceptor 7 (Mus musculus) (UniProt Q9Z1M0); assay: Agonist activity at P2X7 receptor in C57Bl6 mouse lumbar spinal cord slices assessed as increase in glycinergic inhibitory postsynaptic currents after 20 to 26 mins by electrophysiology method relative to control; design: scale not given: the % may be the effect or the level left
T4 sequence (whole entry): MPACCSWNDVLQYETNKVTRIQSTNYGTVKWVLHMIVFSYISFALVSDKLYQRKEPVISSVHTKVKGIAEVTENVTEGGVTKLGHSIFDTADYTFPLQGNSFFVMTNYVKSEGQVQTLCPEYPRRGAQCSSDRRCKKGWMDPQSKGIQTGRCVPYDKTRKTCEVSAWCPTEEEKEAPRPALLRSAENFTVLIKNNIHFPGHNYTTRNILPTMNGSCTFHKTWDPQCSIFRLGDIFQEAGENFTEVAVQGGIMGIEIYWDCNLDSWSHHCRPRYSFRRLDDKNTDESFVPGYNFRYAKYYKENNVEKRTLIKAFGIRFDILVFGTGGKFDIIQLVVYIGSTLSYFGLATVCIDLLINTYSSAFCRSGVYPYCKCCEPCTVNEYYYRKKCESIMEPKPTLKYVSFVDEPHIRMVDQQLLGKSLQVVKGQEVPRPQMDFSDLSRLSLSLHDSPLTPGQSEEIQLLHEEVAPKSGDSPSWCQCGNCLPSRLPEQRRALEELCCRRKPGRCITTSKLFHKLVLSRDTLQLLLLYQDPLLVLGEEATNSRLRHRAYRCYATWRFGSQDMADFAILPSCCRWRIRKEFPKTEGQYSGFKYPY

Mus musculus [18] = assay: In vivo receptor occupancy at GlyT-2 in formalin-induced pain mouse model at 25 mg/kg, ip; format: functional
[19] = target: T2, Sodium- and chloride-dependent glycine transporter 1; assay: Inhibition of human GlyT-1 expressed in CHO cells assessed as reduction in [3H]-glycine uptake; format: cell-based
Rattus norvegicus [20] = organism: Rattus norvegicus; assay: Inhibition of GlyT in rat spinal cord lamina X neuron assessed as increase in extracellular glycine level at 10 uM relative to basal level; design: scale not given: the % may be the effect or the level left
[21] = Toxicity in ip dosed formalin-induced pain mouse model; format: organism-based; details: in vivo
Mus musculus [22] = assay: In vivo receptor occupancy at GlyT-2 in formalin-induced pain mouse model at 0.06 mg/kg, ip; format: functional
Mus musculus [23] = assay: In vivo receptor occupancy at GlyT-2 in formalin-induced pain mouse model at 20 mg/kg, ip; format: functional
Mus musculus [24] = assay: Analgesic activity in formalin-induced pain mouse model assessed as reduction in phase 2 paw licking behavior at 25 mg/kg, ip; format: functional; design: scale not given: the % may be the effect or the level left
Mus musculus [25] = assay: Analgesic activity in formalin-induced pain mouse model assessed as reduction in phase 2 paw licking behavior at 100 mg/kg, ip; format: functional; design: scale not given: the % may be the effect or the level left
Mus musculus [26] = assay: In vivo receptor occupancy at GlyT-2 in formalin-induced pain mouse model at 100 mg/kg, ip; format: functional
Rattus norvegicus [27] = organism: Rattus norvegicus; assay: Antiallodynic activity in Sprague-Dawley rat model of spared nerve injury-induced allodynia assessed as inhibition of electrically evoked inhibitory post-synaptic current amplitude in spinal cord by electrophysiology method; format: functional
[28] = target: 5-hydroxytryptamine receptor 2A (Homo sapiens, UniProt P28223); assay: Antagonist activity at human 5-HT2A; format: functional
Sequence of 5-hydroxytryptamine receptor 2A (P28223 whole entry): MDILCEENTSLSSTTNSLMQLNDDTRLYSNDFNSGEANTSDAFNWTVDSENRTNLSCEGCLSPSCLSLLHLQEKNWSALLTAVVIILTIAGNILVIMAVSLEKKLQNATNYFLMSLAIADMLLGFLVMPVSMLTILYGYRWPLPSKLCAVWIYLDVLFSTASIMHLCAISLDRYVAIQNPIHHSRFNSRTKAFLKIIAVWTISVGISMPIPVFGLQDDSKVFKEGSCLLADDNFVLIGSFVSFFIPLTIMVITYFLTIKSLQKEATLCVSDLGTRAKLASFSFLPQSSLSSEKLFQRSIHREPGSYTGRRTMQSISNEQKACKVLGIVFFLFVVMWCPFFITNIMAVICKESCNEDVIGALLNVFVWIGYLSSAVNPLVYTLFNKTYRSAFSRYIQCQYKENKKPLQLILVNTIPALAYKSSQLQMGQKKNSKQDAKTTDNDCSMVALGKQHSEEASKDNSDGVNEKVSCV

Rattus norvegicus [29] = assay: Analgesic activity in sc dosed formalin-induced pain rat model by formalin test; format: functional
Rattus norvegicus [30] = assay: Antiallodynic activity in po dosed rat spinal nerve ligation model assessed as reduction in mechanical allodynia; format: functional

T1 sequence (O75311 whole entry): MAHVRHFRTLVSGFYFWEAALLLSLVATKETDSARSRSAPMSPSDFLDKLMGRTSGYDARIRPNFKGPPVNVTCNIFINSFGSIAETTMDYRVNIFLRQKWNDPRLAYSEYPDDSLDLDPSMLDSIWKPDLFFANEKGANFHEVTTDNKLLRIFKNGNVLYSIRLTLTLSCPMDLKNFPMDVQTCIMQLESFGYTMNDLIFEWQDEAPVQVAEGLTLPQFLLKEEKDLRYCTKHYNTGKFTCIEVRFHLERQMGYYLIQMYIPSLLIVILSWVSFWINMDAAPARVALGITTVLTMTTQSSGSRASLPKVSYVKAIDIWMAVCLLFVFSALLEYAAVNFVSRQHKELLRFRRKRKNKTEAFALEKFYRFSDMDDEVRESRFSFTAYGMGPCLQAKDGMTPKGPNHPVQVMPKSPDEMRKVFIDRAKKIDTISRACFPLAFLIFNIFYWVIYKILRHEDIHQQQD
T1 sequence (P48167 whole entry): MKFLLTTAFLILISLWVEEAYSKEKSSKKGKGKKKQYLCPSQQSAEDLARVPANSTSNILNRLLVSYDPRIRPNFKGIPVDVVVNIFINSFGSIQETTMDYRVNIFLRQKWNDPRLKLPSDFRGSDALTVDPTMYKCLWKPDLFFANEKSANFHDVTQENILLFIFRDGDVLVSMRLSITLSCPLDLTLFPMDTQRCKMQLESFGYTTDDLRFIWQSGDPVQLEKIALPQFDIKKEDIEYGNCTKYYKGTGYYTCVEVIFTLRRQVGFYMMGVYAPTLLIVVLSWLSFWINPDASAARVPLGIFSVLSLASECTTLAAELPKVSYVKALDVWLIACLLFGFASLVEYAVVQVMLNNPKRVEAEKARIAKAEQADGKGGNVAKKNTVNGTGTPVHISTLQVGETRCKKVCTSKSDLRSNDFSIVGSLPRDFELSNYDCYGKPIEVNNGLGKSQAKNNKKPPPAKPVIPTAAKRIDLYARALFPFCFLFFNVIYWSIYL

In the case of O=S(=O)(NCCOc1cccc2cccnc12)c1ccccc1, the Activity [1] is reported as 65%, the Activity [2] is reported as 182% and the EC50 [3] is reported as 3.98 µM. The Activity [4] was 2710%.
For CNCC(=O)O [SARCOSINE], the IC50 [5] was 91 µM.
Molecule N[C@@H](COC(c1cccc(F)c1)c1ccccc1OCc1ccccc1)C(=O)O (stereo partly drawn) has an IC50 [6] of 0.1 µM, an IC50 [7] of 4 µM and a Ratio IC50 (Homo sapiens) of 40. The Kp uu [8] was 0.036, the “inhibition (INH)” value (Rattus norvegicus [9]) was 26% and the “inhibition (INH)” value (Rattus norvegicus [10]) was 65%. For the same molecule, the “inhibition (INH)” value (Rattus norvegicus [11]) was 37% and the “inhibition (INH)” value (Rattus norvegicus [12]) was 76%.
Molecule NCC1(CC(=O)O)CCCCC1 [GABAPENTIN] has an ED50 (Mus musculus [13]) of 8200 ng.
For CCCCC/C=C\C/C=C\C/C=C\C/C=C\CCCC(=O)NCC(=O)O [ARACHIDONOYL GLYCINE], the IC50 [14] was 3 µM.
In the case of O=C(O)c1ccc(C[C@H]2Sc3c(F)cccc3N(Cc3ccccc3C(F)(F)F)C2=O)cc1, the Activity [1] is reported as 52%, the Activity [2] is reported as 59% and the EC50 [3] is reported as 0.661 µM. For the same molecule, the Activity [4] was 396%.
CCNCC(=O)O showed an EC50 (Mus musculus [15]) of 98 mg/kg and an inhibition in vivo at 200 mg/kg (Mus musculus [16]) of 25%.
CC(C)(C)c1cc(C(C)(C)C)c(O)c(C(=O)O)c1O gave an Activity [1] of 67%, an Activity [2] of 182% and an EC50 [3] of 0.0135 µM. The Activity [4] was 2060%.
Work on Nc1ncnc2c1ncn2[C@@H]1O[C@H](COP(=O)(O)OP(=O)(O)OP(=O)(O)O)[C@@H](OC(=O)c2ccc(C(=O)c3ccccc3)cc2)[C@H]1O yielded an Activity [17] of 135%.
For CN1C(=O)[C@@H]2CN(S(=O)(=O)c3ccc4c(c3)OCO4)C[C@@H]2c2cnccc21, the Activity [1] was 94%, the Activity [2] was 95% and the Activity [4] was 1350%.
With COc1cc(C(=O)NCC2(N(C)C)CCCC2)cc(OC)c1OCc1ccccc1 the Occ (Mus musculus [18]) was 36%, the Kp uu [8] was 0.5 and the IC50 [19] was > 100 µM. The Activity (Rattus norvegicus [20]) was 337%, the ED50 (Mus musculus [13]) was 11 ng and the MTD [21] was 2 mg/kg. For the same molecule, the Occ (Mus musculus [22]) was 6%, the Occ (Mus musculus [23]) was 82% and the Activity (Mus musculus [24]) was 33%. For the same molecule, the Activity (Mus musculus [25]) was 80% and the Occ (Mus musculus [26]) was 60%.
For CN1c2ncccc2N(Cc2ccccc2C(F)(F)F)C(=O)[C@H]1Cc1ccc(C(N)=O)cc1, the Activity [1] was 28%, the Activity [2] was 64% and the Activity [4] was 303%.
For NS(=O)(=O)c1cc2c(cc1Cl)NC(C1CC3C=CC1C3)NS2(=O)=O (stereo not drawn) [CYCLOTHIAZIDE], the “inhibition (INH)” value (Rattus norvegicus [27]) was 37.9%.
For O=C(O)c1ccc(C[C@@H]2Sc3ccccc3N(Cc3ccccc3C(F)(F)F)C2=O)cc1F, the Activity [1] was 161%, the Activity [2] was 44% and the Activity [4] was 259%.
C#Cc1cc(C(=O)OC)cc(-c2ncco2)c1 gave an Activity [1] of 52%, an Activity [2] of 49% and an EC50 [3] of 10.2 µM. It also gave an Activity [4] of 255%.
With COc1ccc2c(c1)CC[C@H](CN(C)CC(=O)O)[C@@H]2c1ccccc1 [ORG-25935] the IC50 [5] was 0.1 µM.
Work on O=[N+]([O-])c1cccc(S(=O)(=O)NCCOc2cccc3cccnc23)c1 yielded an Activity [1] of 23%, an Activity [2] of 98% and an Activity [4] of 136%.
In the case of CCCCOc1c(OC)cc(C(=O)NCC2(N(C)C)CCOCC2)cc1OC, the IC50 [28] is reported as 1.3 µM, the ED50 (Rattus norvegicus [29]) is reported as 20 mg/kg and the ED50 (Rattus norvegicus [30]) is reported as 80 mg/kg.
